From patent publication EP0013067A1, “Bicyclic beta-lactam antibacterial agents, their use in pharmaceutical compositions, processes for their preparation and intermediates for use in such processes” (BEECHAM GROUP PLC, priority 1978, dated 1980) come the findings set out here.

Experiment in all cases: MIC, microtitre using Nutrient broth
Common to all, as to assay type: cell-based

One assay deals with Escherichia coli 0111. The settings on record: Microtitre using nutrient broth, inoculum 0.001 ml of a 10^-2 dilution for G + ve bacteria or a 10^-4 dilution for G - ve organisms. From the text:
(§1) The ninimum inhibitory concentrations (MIC) cf this compound required to inhibit the growth of various bacteria are tabulated balow: […]

For the next assay, the system named is Escherichia coli JT 39. As to conditions: JT39; Escherichia coli JT 39; Microtitre using nutrient broth; inoculum 0.001 ml of a 10^-2 dilution for G + ve bacteria or a 10^-4 dilution for G - ve organisms; read-out: MIC Broth.
From the text: as §1

A further assay concerns Klebsiella aerogenes A. As to conditions: Klebsiella aerogenes A; Microtitre using nutrient broth; inoculum 0.001 ml of a 10^-2 dilution for G + ve bacteria or a 10^-4 dilution for G - ve organisms; read-out: MIC Broth.
From the text: as §1

A further assay relates to Proteus mirabilis C977. As to conditions: Proteus mirabilis C977; Microtitre using nutrient broth; inoculum 0.001 ml of a 10^-2 dilution for G + ve bacteria or a 10^-4 dilution for G - ve organisms; read-out: MIC Broth.
From the text: as §1

For a further assay, the system named is Pseudomonas aeruginosa A. The settings on record: Pseudomonas aeruginosa A; Microtitre using nutrient broth; inoculum 0.001 ml of a 10^-2 dilution for G + ve bacteria or a 10^-4 dilution for G - ve organisms; read-out: MIC Broth.
From the text: as §1

In assay [1] the test system is Staphylococcus aureus Oxford. The settings on record: Staphylococcus aureus Oxford; Microtitre using nutrient broth; inoculum 0.001 ml of a 10^-2 dilution for G + ve bacteria or a 10^-4 dilution for G - ve organisms; read-out: MIC Broth.
From the text: as §1

For assay [2], the system named is Staphylococcus aureus Russell. As to conditions: Staphylococcus aureus Russell; Microtitre using nutrient broth; inoculum 0.001 ml of a 10^-2 dilution for G + ve bacteria or a 10^-4 dilution for G - ve organisms; read-out: MIC Broth.
From the text: as §1

The next assay relates to Enterobacter cloacae N1. The settings on record: Microtitre using nutrient broth, inoculum 0.001 ml of a 10^-2 dilution for G + ve bacteria or a 10^-4 dilution for G - ve organisms.
From the text: as §1

For assay [3], the system named is Staphylococcus aureus 1517. The settings on record: inoculum 0.001 ml of a 10^-2 dilution for G + ve bacteria or a 10^-4 dilution for G - ve organisms.
From the text: as §1

As to `O=C(O)C1=C(CO)SC2CC(=O)N12` (stereo not drawn) [compound 19, Sodium 2-Hydroxymethyl penem-3-carboxylate], the MIC with Escherichia coli 0111 is 31 µg/mL; in the assay on Escherichia coli JT 39, 62 µg/mL; in the assay on Klebsiella aerogenes A, 31 µg/mL; in the assay on Proteus mirabilis C977, 62 µg/mL; in the assay with Pseudomonas aeruginosa A, 62 µg/mL; in assay [1], 4 µg/mL. Moreover, in assay [2], the minimal inhibitory concentration (MIC) is 8 µg/mL.
Turning to `CC(=O)OCC1=C(C(=O)O)N2C(=O)CC2S1` (stereo not drawn) [compound 21, Sodium 2-Acetoxymethyl penem-3-carboxylate], the MIC in the assay on Enterobacter cloacae N1 was found to be 62 µg/mL; in the assay with Escherichia coli 0111 it was 8 µg/mL; in the assay with Escherichia coli JT 39 it was 31 µg/mL; in the assay on Klebsiella aerogenes A, 8 µg/mL; in the assay with Proteus mirabilis C977, 8 µg/mL; with Pseudomonas aeruginosa A it was 500 µg/mL. In addition, the minimal inhibitory concentration (MIC) in [3] and in assay [2] was 8 µg/mL throughout.

The MIC is the lowest concentration that inhibits growth of the organism.
